Laboratory results reported in patent publication US5411964A, “Phenylalanine-glycine compounds having anti-tumor activity, process for preparation thereof, and pharmaceutical composition containing said compounds” (Kureha Chemical Industry Co., Ltd., priority 1992, dated 1995).

Tests used:
[1] = test system: Sarcoma-180; experiment: Antitumor activity: inhibition of solid Sarcoma-180 tumor implanted subcutaneously in ICR mice; assay type: in vivo; settings: day 22, i.p. 10 times every other day, mg/kg: 5-Fu 15, MP 10, 5-CAU 10, Phe+5-Fu 15+15, Phe+MP 15+10, Phe+5-CAU 15+10, Phe-5-Fu 30, Phe'-5-Fu 30, Phe-MP 20, Phe-5-CAU 20; for Average tumor weight ± SD: control 3.438 ± 1.481, in g (unit assumed)
Method: The concentration of the solid tumor cells (Sarcoma-180) was aseptically adjusted to 1×10^6 /0.2 ml with a medium [prepared by filtering 10% bovine fetal serum-added MEM (Eagles' Minimum Essential Medium) for sterilization, and stored at 4° C.] and subcutaneously implanted at the axillas of ICR mice (5 weeks old; females; one group consisting of 10 mice). From the next day, the samples (0.15% physiological saline solution) shown in Table 1 were administered intraperitoneally 10 times every other day. On the 22nd day, the tumors were excised and the inhibition rate (IR) was obtained from the weight of the tumors. The inhibition rate (IR) (%) was calculated by the following formula: […]
wherein T is the average tumor weight of the treated group, and C is the average tumor weight of the control group.

[2] = test system: Wistar rats; experiment: Acute toxicity, oral forced administration to Wistar rats; assay type: in vivo; settings: 250 mg/kg by forced administration, fasted male Wistar rats, observed until 14 days
Method: (1) The conditions in the feeding chamber were arranged to a temperature of 23°±1° C., a relative humidity of 55±5%, a ventilation frequency of 20 times per hour, and a lighting term of 12 hours. Wistar rats (male; five-week old;. 120 to 141 g) were used. The rats were placed in metallic cages having wire walls in the front and bottom thereof, at the rate of 5 rats per one cage. They were allowed food (MF: Oriental Yeast) and water ad libitum.
The conjugate (I-1) of the present invention obtained from Example 1(5) was suspended in a 1.5% methylcellulose aqueous solution. The suspension was administered by force. The amount of the administration was 1 ml per 100 g body weight of animals forced to fast for 18 hours, that is, 250 mg/kg was administered. Symptoms of addiction and survival were observed hourly up to 8 hours after the administration, then twice a day until 14 days after administration.

[3] = test system: pyruvate kinase M2-type isoenzyme; settings: low concentration of L-phenylalanine; cited from earlier work

## CCOC(=O)C(NC(=O)[C@@H](N)Cc1ccccc1)n1cc(F)c(=O)[nH]c1=O (mixture of isomers) [Phe'-5-Fu, L-phenylalanyl-2-(5-fluorouracil-1-yl)-D,L-glycineethylester]
[1]
  IR (inhibition rate from tumor weight): 76.5%
  Average tumor weight ± SD: 0.808 ± 0.389

## N[C@@H](Cc1ccccc1)C(=O)NC(C(=O)O)n1cc(N(CCCl)CCCl)c(=O)[nH]c1=O (mixture of isomers) [Phe-5-CAU, L-phenylalanyl-2-[5-(bis(2-chloroethyl)amino)uracil-1-yl]-D,L-glycine]
[1]
  IR (inhibition rate from tumor weight): 75.2%
  Average tumor weight ± SD: 0.854 ± 0.664

## N[C@@H](Cc1ccccc1)C(=O)NC(C(=O)O)n1cc(F)c(=O)[nH]c1=O (mixture of isomers) [Phe-5-Fu, L-phenylalanyl-2-(5-fluorouracil-1-yl)-D,L-glycine]
[2]
  Survival / death after administration: No death was observed
[1]
  IR (inhibition rate from tumor weight): 77.6%
  Average tumor weight ± SD: 0.770 ± 0.397

## O=c1[nH]cc(N(CCCl)CCCl)c(=O)[nH]1 [5-CAU, 5-[bis(2-chloroethyl)amino]uracil, reference compound]
[1]
  IR (inhibition rate from tumor weight): 54.2%
  Average tumor weight ± SD: 1.574 ± 1.285

## O=c1[nH]cc(F)c(=O)[nH]1 [5-Fu, 5-fluorouracil, reference compound]
[1]
  IR (inhibition rate from tumor weight): 57.3%
  Average tumor weight ± SD: 1.467 ± 1.437

## N[C@@H](Cc1ccccc1)C(=O)O [L-phenylalanine]
[3]
  inhibition of M2-type isoenzyme of pyruvate kinase (in words): selectively inhibited

## N[C@@H](Cc1ccc(N(CCCl)CCCl)cc1)C(=O)O [MP, Melphalan, reference compound]
[1]
  IR (inhibition rate from tumor weight): 60.5%
  Average tumor weight ± SD: 1.358 ± 1.369

## CCOC(=O)C(NC(=O)[C@@H](N)Cc1ccccc1)N[C@@H](Cc1ccc(N(CCCl)CCCl)cc1)C(=O)OC (stereo partly drawn) [Phe-MP, L-phenylalanyl-2-[p-(bis(2-chloroethyl)amino)-L-phenylalaninemethylester-2-yl]-D,L-glycineethylester]
[1]
  IR (inhibition rate from tumor weight): 72.6%
  Average tumor weight ± SD: 0.943 ± 0.587
